Measurements taken from patent US20240373844A1, “PYROGLUTAMIC ACID AS AN HERBICIDE SAFENER AND METHODS OF USE THEREOF” (Verdesian Life Sciences U.S., LLC, priority 2021, published 2024).

System: corn (Zea mays) plants
Test: Corn plants treated with glyphosate with and without PGA soil drench: dry biomass and leaf area (Experiment 1)
Format: in vivo
Settings: 7 days after planting
Procedure: Corn seeds were sown in standard 10 cm diameter pots in peat-based media (Fafard #2/Sunshine Mix #8 soilless media: 75% Canadian sphagnum peat moss, 20% perlite, 5% vermiculite, trace: dolomitic limestone, wetting agent, silicon). Plants were grown under the following environmental conditions: • Temperature: 30° C. day/23° C. • Relative humidity: 60-70% • Photoperiod: 16 hours light/8 hours dark • Light intensity: 800-1000 μMols/m^2/s Treatments were administered 5 days after planting. In experiment 1, glyphosate was applied at 1%, 10%, and 100% of label rate, with and without PGA (0.137 g/L), as outlined in the table below. In Experiment 2, Bayer All-in-One® herbicide was applied at 10% and 100% of the label rate, with and without PGA (0.137 g/L). In both treatments, control plants received water. In both experiments, herbicide was applied as a 0.5 mL droplet by pipet on the 1st fully expanded leaf; PGA was applied as a 50 mL soil drench. Plants were grown in a completely randomized design for an additional 2 days to allow the treatments to take effect. At 7 days after planting, plants were photographed, and destructively harvested for leaf area and dry biomass.

| Compound | Avg(DryWt) (0.137 g/L PGA drench with 1% Label Rate Glyphosate) [g] | Avg(DryWt) (0.137 g/L PGA drench with 10% Label Rate Glyphosate) [g] | Avg(DryWt) (0.137 g/L PGA drench, 0 Glyphosate) [g] | Avg(DryWt) (1% Label Rate Glyphosate, 0.0 g/L PGA) [g] | Avg(DryWt) (10% Label Rate Glyphosate, 0.0 g/L PGA) [g] | Avg(DryWt) (100% Label Rate Glyphosate, 0.0 g/L PGA) [g] |
| --- | --- | --- | --- | --- | --- | --- |
| O=C1CC[C@@H](C(=O)O)N1 [PGA, pyroglutamic acid] | 0.10 | 0.10 | 0.15 | – | – | – |
| O=C(O)CNCP(=O)(O)O [Glyphosate, glyphosate] | – | – | – | 0.12 | 0.06 | 0.05 |
